Results on 2 compounds are retold here after ChEMBL document CHEMBL1909046, “DrugMatrix in vitro pharmacology data”.

Histamine H2 receptor, sequence (P25021 whole entry): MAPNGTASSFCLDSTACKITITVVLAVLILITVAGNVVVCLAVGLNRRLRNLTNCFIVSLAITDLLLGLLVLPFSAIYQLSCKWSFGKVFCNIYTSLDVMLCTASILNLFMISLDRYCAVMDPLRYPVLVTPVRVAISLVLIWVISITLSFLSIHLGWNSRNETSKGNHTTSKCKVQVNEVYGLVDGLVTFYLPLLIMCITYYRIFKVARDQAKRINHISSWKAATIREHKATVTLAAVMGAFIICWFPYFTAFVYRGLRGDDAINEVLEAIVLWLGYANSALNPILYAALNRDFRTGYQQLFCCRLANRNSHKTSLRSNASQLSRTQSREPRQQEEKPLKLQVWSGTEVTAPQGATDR
5-hydroxytryptamine receptor 1B, sequence (P28564 whole entry): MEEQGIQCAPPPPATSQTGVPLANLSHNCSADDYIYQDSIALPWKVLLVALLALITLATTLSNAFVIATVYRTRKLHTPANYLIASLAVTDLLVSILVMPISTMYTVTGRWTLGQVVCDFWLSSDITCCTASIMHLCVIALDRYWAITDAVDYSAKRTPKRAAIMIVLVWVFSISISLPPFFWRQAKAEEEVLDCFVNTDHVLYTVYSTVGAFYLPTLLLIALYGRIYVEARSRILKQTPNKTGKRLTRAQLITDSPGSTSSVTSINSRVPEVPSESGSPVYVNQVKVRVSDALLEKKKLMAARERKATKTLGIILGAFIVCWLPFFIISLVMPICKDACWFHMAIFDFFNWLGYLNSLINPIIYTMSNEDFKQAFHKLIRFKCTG

System in the first test: not listed separately
As to the kind of experiment: DRUGMATRIX: Sigma2 radioligand binding (ligand: [3H] Ifenprodil). Format: cell membranes, Rattus norvegicus, Wistar, Brain, Membrane. As to conditions: Not Active = under 50% inhibition at 10 µM.
As for `CC(C)[C@H](N)C(=O)OCCOCn1cnc2c(=O)nc(N)[nH]c21` [VALACYCLOVIR], the IC50 result was “Not Active” and the Ki result is “Not Active”.

As to `COC(=O)[C@@H]1[C@H]2C[C@H]3c4[nH]c5ccccc5c4CCN3C[C@@H]2CC[C@@H]1O` [YOHIMBINE], the IC50 entry is listed as “Not Active” and the Ki result is “Not Active”.

Another test deals with Sodium-dependent dopamine transporter (Homo sapiens, UniProt Q01959). As to the kind of experiment: DRUGMATRIX: Dopamine Transporter radioligand binding (ligand: [125I] RTI-55). Type of test: cell membranes, CHO-K1, Membrane. Conditions: cho-k1; Not Active = under 50% inhibition at 10 µM.
Sodium-dependent dopamine transporter, sequence (Q01959 whole entry): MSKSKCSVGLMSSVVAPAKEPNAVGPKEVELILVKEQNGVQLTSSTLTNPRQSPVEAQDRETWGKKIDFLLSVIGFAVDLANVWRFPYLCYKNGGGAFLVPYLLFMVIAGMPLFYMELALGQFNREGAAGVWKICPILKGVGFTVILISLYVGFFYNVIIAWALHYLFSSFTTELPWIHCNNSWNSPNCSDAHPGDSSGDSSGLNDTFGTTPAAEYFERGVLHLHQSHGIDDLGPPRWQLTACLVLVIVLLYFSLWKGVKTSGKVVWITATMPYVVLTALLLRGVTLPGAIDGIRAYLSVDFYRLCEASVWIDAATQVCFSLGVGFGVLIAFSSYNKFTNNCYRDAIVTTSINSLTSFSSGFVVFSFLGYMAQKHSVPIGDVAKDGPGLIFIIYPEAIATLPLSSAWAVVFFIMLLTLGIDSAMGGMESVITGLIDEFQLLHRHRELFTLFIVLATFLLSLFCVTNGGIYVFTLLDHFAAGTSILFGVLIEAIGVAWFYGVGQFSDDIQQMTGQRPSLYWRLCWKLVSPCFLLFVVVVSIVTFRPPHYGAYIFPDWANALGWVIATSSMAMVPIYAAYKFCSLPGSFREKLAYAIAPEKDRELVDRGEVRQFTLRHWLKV
Turning to `CC(C)[C@H](N)C(=O)OCCOCn1cnc2c(=O)nc(N)[nH]c21` [VALACYCLOVIR], the IC50 entry is recorded as “Not Active”.

As for `COC(=O)[C@@H]1[C@H]2C[C@H]3c4[nH]c5ccccc5c4CCN3C[C@@H]2CC[C@@H]1O` [YOHIMBINE], the IC50 result is “Not Active”.

System in another test: not listed separately
As to the kind of experiment: DRUGMATRIX: GABAA, Flunitrazepam, Central radioligand binding (ligand: [3H] Flunitrazepam). Format: cell membranes, Rattus norvegicus, Wistar, Brain, Membrane. Conditions: Not Active = under 50% inhibition at 10 µM.
For `CC(C)[C@H](N)C(=O)OCCOCn1cnc2c(=O)nc(N)[nH]c21` [VALACYCLOVIR], the IC50 result was “Not Active” and the Ki result is “Not Active”.

As for `COC(=O)[C@@H]1[C@H]2C[C@H]3c4[nH]c5ccccc5c4CCN3C[C@@H]2CC[C@@H]1O` [YOHIMBINE], the IC50 entry is “Not Active” and the Ki entry is reported as “Not Active”.

Another test concerns the target Histamine H2 receptor (Homo sapiens, UniProt P25021). Further: in other assays of this panel Not Active means under 50% inhibition at 10 µM.
Assay: not given
Conditions: cho-k1. Type of test: cell membranes, CHO-K1, Membrane.
As to `CC(C)[C@H](N)C(=O)OCCOCn1cnc2c(=O)nc(N)[nH]c21` [VALACYCLOVIR], the IC50 result is “Not Active”.

Consider `COC(=O)[C@@H]1[C@H]2C[C@H]3c4[nH]c5ccccc5c4CCN3C[C@@H]2CC[C@@H]1O` [YOHIMBINE], for which the IC50 entry is given as “Not Active”.

For a further test, the target named is Insulin receptor (Rattus norvegicus, UniProt P15127). Further: in other assays of this panel Not Active means under 50% inhibition at 10 µM.
Insulin receptor, sequence (P15127 27-759 limits assumed): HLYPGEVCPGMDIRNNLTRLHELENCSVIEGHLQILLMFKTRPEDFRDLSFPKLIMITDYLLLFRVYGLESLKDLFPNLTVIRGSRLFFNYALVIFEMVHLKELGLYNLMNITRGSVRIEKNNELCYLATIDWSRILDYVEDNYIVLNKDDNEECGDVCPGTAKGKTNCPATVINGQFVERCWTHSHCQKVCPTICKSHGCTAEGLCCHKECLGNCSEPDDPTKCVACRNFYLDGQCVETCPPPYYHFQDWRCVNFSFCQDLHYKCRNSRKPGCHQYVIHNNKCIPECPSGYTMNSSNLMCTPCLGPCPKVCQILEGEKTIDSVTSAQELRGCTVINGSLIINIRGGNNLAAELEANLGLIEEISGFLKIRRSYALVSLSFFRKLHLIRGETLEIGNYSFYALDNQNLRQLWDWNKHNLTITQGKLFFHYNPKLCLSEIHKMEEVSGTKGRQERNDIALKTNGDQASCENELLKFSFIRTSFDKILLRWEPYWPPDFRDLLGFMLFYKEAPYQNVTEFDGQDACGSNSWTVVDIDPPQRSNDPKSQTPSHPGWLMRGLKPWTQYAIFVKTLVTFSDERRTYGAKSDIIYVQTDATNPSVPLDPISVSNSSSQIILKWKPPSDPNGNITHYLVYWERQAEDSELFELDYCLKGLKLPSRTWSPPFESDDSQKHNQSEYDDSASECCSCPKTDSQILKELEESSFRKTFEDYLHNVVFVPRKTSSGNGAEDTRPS
Insulin receptor, sequence (P15127 764-1383 limits assumed): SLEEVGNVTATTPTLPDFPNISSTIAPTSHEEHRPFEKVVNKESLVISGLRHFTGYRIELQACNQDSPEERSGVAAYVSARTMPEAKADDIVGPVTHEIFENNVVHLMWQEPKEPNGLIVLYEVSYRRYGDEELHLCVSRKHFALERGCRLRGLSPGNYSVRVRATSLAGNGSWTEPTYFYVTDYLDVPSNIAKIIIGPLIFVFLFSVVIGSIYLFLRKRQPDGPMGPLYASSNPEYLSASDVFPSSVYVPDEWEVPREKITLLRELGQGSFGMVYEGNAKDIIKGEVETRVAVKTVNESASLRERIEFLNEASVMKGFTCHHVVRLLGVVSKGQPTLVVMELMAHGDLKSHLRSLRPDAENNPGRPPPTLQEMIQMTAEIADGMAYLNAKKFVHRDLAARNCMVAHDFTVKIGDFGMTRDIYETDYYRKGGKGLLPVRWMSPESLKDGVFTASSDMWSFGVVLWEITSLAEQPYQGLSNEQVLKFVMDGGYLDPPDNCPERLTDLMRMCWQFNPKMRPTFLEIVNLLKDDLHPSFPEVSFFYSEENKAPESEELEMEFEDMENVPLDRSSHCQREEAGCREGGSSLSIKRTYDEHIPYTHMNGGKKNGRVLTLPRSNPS
Assay: not given
Type of test: cell membranes, Wistar, Liver, Membrane.
Settings: not given
For the compound `CC(C)[C@H](N)C(=O)OCCOCn1cnc2c(=O)nc(N)[nH]c21` [VALACYCLOVIR], the IC50 entry is “Not Active”.

For `COC(=O)[C@@H]1[C@H]2C[C@H]3c4[nH]c5ccccc5c4CCN3C[C@@H]2CC[C@@H]1O` [YOHIMBINE], the IC50 entry is recorded as “Not Active”.

System in the next test: not listed separately
As to the kind of experiment: DRUGMATRIX: Leukotriene, BLT (LTB4) radioligand binding (ligand: [3H]LTB4). Format: cell membranes, Membrane. As to conditions: u-937; Not Active = under 50% inhibition at 10 µM.
Regarding `CC(C)[C@H](N)C(=O)OCCOCn1cnc2c(=O)nc(N)[nH]c21` [VALACYCLOVIR], the IC50 result was “Not Active” and the Ki result is “Not Active”.

With `COC(=O)[C@@H]1[C@H]2C[C@H]3c4[nH]c5ccccc5c4CCN3C[C@@H]2CC[C@@H]1O` [YOHIMBINE], the IC50 result is recorded as “Not Active” and the Ki entry is recorded as “Not Active”.

In a further test the target is Melanocortin receptor 3 (Homo sapiens, UniProt P41968). Further: in other assays of this panel Not Active means under 50% inhibition at 10 µM.
Melanocortin receptor 3, sequence (P41968 whole entry): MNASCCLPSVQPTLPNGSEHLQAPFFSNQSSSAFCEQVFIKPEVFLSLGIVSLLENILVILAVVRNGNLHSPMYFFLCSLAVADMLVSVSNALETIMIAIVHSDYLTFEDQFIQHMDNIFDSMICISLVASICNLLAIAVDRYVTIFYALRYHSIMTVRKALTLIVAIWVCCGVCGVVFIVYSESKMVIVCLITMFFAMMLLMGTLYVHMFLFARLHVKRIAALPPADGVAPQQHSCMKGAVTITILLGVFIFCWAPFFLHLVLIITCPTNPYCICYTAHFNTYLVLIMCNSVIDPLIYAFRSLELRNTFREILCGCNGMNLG
Assay: not given
Type of test: cell membranes, Membrane. Conditions: hek293.
As to `CC(C)[C@H](N)C(=O)OCCOCn1cnc2c(=O)nc(N)[nH]c21` [VALACYCLOVIR], the IC50 result is listed as “Not Active”.

`COC(=O)[C@@H]1[C@H]2C[C@H]3c4[nH]c5ccccc5c4CCN3C[C@@H]2CC[C@@H]1O` [YOHIMBINE]: the IC50 entry is “Not Active”.

In the next test the target is Melanocortin receptor 5 (Homo sapiens, UniProt P33032). Further: in other assays of this panel Not Active means under 50% inhibition at 10 µM.
Melanocortin receptor 5, sequence (P33032 whole entry): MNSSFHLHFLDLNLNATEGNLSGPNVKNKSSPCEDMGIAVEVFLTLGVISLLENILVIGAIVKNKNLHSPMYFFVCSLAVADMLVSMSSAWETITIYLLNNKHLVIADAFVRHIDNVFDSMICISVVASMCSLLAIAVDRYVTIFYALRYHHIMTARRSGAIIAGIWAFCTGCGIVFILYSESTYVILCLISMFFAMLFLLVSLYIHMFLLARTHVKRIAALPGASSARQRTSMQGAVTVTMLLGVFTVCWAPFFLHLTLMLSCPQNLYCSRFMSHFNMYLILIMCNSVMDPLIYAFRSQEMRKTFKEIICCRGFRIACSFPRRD
Assay: not given
Type of test: cell membranes, HEK293, Membrane. Conditions: hek293.
For the compound `CC(C)[C@H](N)C(=O)OCCOCn1cnc2c(=O)nc(N)[nH]c21` [VALACYCLOVIR], the IC50 result is “Not Active”.

For the compound `COC(=O)[C@@H]1[C@H]2C[C@H]3c4[nH]c5ccccc5c4CCN3C[C@@H]2CC[C@@H]1O` [YOHIMBINE], the IC50 result is recorded as “Not Active”.

The target in the next test is T1, Muscarinic acetylcholine receptor M4 (Homo sapiens, UniProt P08173). Further: in other assays of this panel Not Active means under 50% inhibition at 10 µM.
T1 sequence (P08173 whole entry): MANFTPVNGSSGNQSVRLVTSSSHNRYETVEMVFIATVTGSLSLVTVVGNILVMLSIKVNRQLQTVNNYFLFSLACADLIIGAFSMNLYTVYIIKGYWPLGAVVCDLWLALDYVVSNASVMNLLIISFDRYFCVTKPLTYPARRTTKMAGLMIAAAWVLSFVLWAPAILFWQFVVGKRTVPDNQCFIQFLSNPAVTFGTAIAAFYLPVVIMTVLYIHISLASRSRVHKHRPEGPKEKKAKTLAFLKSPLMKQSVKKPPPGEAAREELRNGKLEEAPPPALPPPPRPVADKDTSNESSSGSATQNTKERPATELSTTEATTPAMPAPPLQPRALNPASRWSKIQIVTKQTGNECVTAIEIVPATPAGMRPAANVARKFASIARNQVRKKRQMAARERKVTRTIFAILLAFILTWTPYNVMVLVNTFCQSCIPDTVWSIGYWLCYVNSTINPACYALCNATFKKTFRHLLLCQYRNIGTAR
Assay: not given
Type of test: cell membranes, CHO-K1, Membrane. As to conditions: cho-k1.
With `CC(C)[C@H](N)C(=O)OCCOCn1cnc2c(=O)nc(N)[nH]c21` [VALACYCLOVIR], the IC50 entry was “Not Active”.

As for `COC(=O)[C@@H]1[C@H]2C[C@H]3c4[nH]c5ccccc5c4CCN3C[C@@H]2CC[C@@H]1O` [YOHIMBINE], the IC50 result is “Not Active”.

For the next test, the target named is T2, Muscarinic acetylcholine receptor M5 (Homo sapiens, UniProt P08912). Further: in other assays of this panel Not Active means under 50% inhibition at 10 µM.
T2 sequence (P08912 whole entry): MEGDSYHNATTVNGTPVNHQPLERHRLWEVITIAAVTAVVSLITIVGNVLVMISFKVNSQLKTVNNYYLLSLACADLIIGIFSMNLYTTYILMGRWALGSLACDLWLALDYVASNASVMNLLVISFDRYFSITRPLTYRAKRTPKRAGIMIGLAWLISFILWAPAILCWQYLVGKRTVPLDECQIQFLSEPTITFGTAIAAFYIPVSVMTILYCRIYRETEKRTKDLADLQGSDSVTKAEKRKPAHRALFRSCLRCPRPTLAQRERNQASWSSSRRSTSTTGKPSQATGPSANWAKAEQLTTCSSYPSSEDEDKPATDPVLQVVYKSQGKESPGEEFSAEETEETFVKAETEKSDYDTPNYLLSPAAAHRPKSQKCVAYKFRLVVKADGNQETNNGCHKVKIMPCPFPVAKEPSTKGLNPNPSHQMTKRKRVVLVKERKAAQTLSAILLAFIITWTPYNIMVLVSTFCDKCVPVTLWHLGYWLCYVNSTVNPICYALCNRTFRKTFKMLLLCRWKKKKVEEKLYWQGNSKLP
Assay: not given
Type of test: cell membranes, CHO-K1, Membrane. Conditions: cho-k1.
In the case of `CC(C)[C@H](N)C(=O)OCCOCn1cnc2c(=O)nc(N)[nH]c21` [VALACYCLOVIR], the IC50 entry was “Not Active”.

Consider `COC(=O)[C@@H]1[C@H]2C[C@H]3c4[nH]c5ccccc5c4CCN3C[C@@H]2CC[C@@H]1O` [YOHIMBINE], for which the IC50 result is on record as “Not Active”.

The next test deals with T3, Caspase-1 (Homo sapiens, UniProt P29466).
T3 sequence (P29466 whole entry): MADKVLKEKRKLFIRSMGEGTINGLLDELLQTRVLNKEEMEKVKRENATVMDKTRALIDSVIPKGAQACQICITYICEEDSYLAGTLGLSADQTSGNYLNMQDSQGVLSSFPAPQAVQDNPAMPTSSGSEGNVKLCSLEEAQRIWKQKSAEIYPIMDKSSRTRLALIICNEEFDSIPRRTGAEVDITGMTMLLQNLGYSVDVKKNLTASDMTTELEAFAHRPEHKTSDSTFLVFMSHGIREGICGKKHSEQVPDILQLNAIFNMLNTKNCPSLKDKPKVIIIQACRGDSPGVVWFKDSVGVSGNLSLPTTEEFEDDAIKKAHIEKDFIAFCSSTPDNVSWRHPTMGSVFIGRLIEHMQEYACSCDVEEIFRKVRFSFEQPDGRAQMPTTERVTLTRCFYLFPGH
Assay: not given
More on the design: species or system Escherichia coli.
Settings: not given
`CC(C)[C@H](N)C(=O)OCCOCn1cnc2c(=O)nc(N)[nH]c21` [VALACYCLOVIR]: the IC50 entry is on record as “Not Active”.

Consider `COC(=O)[C@@H]1[C@H]2C[C@H]3c4[nH]c5ccccc5c4CCN3C[C@@H]2CC[C@@H]1O` [YOHIMBINE], for which the IC50 result was “Not Active”.

The target of another test is T4, Neutrophil elastase (Homo sapiens, UniProt P08246).
T4 sequence (P08246 whole entry): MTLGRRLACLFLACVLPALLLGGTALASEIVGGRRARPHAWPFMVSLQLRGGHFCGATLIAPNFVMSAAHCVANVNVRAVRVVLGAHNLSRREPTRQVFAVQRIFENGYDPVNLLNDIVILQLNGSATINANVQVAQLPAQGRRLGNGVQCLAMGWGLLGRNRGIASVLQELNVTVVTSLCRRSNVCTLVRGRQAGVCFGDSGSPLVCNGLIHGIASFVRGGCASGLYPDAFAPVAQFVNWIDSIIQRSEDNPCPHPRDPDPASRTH
Assay: not given
Type of test: tissue-based.
Settings: not given
On to `CC(C)[C@H](N)C(=O)OCCOCn1cnc2c(=O)nc(N)[nH]c21` [VALACYCLOVIR], for which the IC50 result is “Not Active”.

Consider `COC(=O)[C@@H]1[C@H]2C[C@H]3c4[nH]c5ccccc5c4CCN3C[C@@H]2CC[C@@H]1O` [YOHIMBINE], for which the IC50 result is recorded as “Not Active”.

The target of the next test is Tyrosine-protein kinase Fyn (Homo sapiens, UniProt P06241). As to the kind of experiment: biochemical. Format: cell-based, Insect cells. As to conditions: insect cells.
Tyrosine-protein kinase Fyn, sequence (P06241 whole entry): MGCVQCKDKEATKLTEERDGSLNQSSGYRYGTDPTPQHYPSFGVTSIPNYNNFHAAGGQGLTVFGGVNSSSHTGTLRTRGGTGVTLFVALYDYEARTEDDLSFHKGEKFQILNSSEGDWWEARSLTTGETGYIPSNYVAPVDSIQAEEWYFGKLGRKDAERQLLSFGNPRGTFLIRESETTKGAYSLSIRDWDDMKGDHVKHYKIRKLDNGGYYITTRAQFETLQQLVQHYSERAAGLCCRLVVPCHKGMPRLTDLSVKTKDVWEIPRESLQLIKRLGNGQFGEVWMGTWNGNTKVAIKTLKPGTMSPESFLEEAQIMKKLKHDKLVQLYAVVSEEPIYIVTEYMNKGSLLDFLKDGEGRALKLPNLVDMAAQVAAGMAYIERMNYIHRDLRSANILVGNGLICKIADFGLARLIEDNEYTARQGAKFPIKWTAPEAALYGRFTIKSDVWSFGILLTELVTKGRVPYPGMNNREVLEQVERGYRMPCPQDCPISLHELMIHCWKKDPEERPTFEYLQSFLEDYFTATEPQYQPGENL
Turning to `CC(C)[C@H](N)C(=O)OCCOCn1cnc2c(=O)nc(N)[nH]c21` [VALACYCLOVIR], the IC50 entry was “Not Active”.

Regarding `COC(=O)[C@@H]1[C@H]2C[C@H]3c4[nH]c5ccccc5c4CCN3C[C@@H]2CC[C@@H]1O` [YOHIMBINE], the IC50 entry is on record as “Not Active”.

The target of a further test is Receptor tyrosine-protein kinase erbB-2 (Homo sapiens, UniProt P04626). As to the kind of experiment: biochemical. Format: cell-based, Insect cells. Conditions: insect cells.
On to `CC(C)[C@H](N)C(=O)OCCOCn1cnc2c(=O)nc(N)[nH]c21` [VALACYCLOVIR], for which the IC50 entry is “Not Active”.

With `COC(=O)[C@@H]1[C@H]2C[C@H]3c4[nH]c5ccccc5c4CCN3C[C@@H]2CC[C@@H]1O` [YOHIMBINE], the IC50 entry is on record as “Not Active”.

A further test addresses 5-hydroxytryptamine receptor 1B (Rattus norvegicus, UniProt P28564).
Assay: not given
Format: cell membranes, Wistar, Cerebral cortex, Membrane.
Settings: not given
In the case of `CC(C)[C@H](N)C(=O)OCCOCn1cnc2c(=O)nc(N)[nH]c21` [VALACYCLOVIR], the IC50 entry is “Not Active”.

As for `COC(=O)[C@@H]1[C@H]2C[C@H]3c4[nH]c5ccccc5c4CCN3C[C@@H]2CC[C@@H]1O` [YOHIMBINE], the IC50 entry was “Not Active”.
